Entries after “also recorded” stand apart in the source; their conditions may differ. One block for each compound: values may come before it.
Legend:
[1] = Preliminary in vitro alkylation studies
splenic T cell = assay: Concanavalin A-stimulated splenic T cell proliferation ([3H]-thymidine incorporation); format: cell-based, Mouse
Protocol: Splenic cells were treated with various concentrations of SDA or an analogue for 30 min. at 37°C. Cells were washed and cultured in the presence of Concanavalin A for 3 days. [³H] Thymidine 0.1µCi/well was added and cells were harvested after 18-24 hrs.
Mouse spleen cells were cultured for 3 days in flat bottom microtiter relates at 10⁵ cells per well in the presence of […] of Con A. 3H-thymidine (0.1 microcurie/well) was added for the last 4-6 hours of the culture period. Cells were harvested as described above.
For [³H]-thymidine incorporation, drug or vehicle treated bone marrow or spleen cells were plated in RPMI-1640, containing 10% fetal bovine serum, 10 µM β-mercaptoethanol, 25 mM HEPES and 2 mM glutamine. Con-A (4 µg/ml and […]) was used as mitogens for bone marrow and spleen cells. Three days later, [³H]-thymidine (0.2 µCi/well) was added and cells were harvested after 12-18 hrs. L1210/CPA and L1210/0 cells (0.1 - 1 x 10⁵ cells/well were plated in RPMI-1640 containing 10% horse serum. [³H]-thymidine was added after 24 hrs and cells were filtered on GF/B filter paper for scintillation counting.

[2] = target: T1, S-Adenosylmethionine Decarboxylase (AdoMet DC) (Mus musculus, UniProt P0DMN7); assay: AdoMet DC inhibition in L1210 cell supernatants ([14C]CO2 release); format: biochemical, Murine; conditions: for inhibition of AdoMet DC (in words): Fig. 9 and Figure 10
T1 construct: endogenous in cells; host or cells: murine leukemic L1210 cells (supernatant)
T1 sequence (P0DMN7 68-334 limits assumed): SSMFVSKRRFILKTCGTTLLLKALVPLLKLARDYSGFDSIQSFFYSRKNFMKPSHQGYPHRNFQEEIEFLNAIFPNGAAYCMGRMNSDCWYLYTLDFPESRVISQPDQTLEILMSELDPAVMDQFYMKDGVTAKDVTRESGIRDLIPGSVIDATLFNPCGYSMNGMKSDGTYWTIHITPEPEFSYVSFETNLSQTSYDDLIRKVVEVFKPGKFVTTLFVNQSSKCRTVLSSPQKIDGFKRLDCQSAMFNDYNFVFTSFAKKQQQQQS
T1 sequence (P0DMN7 1-67 limits assumed): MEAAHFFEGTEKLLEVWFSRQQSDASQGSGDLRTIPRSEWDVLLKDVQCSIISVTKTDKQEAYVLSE
Protocol: Murine leukemic L1210 cell supernatants were incubated with different concentrations of SDA or butyl dialdehyde, and AdoMet DC activity was estimated by monitoring the release of [¹⁴C] CO₂. Inhibition curves for both drugs were superimposable with IC₅₀ values of 0.12-0.13 x 10⁻³ M.

cytosolic ALDH = assay: NAD-linked cytosolic ALDH assay, L1210/CPA cells; format: biochemical, Murine
Protocol: (§1) Cultured murine leukemic cells and livers (excised from mice immediately after cervical dislocation) were homogenized in 3 volumes of ice-cold 1.15% KCl and 1 mM EDTA. The homogenate was centrifuged at 100,000 g for 45 min and the resulting supernatant was used to measure cytosolic ALDH activity. For particulate ALDH assay, the pellet (and homogenate for total ALDH) was resuspended in homogenizing buffer and treated with 0.25% Triton X-100 for 30 min at 4°C. The solubilized preparations were centrifuged at 48,000 g for 30 min and the supernatants were drawn off for ALDH determinations.
(§2) ALDH activity was measured by monitoring the reduction of NAD or NADp for 5-6 min at […] at 37°C in DU70 spectrophotometer (Beckman). The assay mixture contained 50 mM potassium phosphate buffer, pH 7.4, 2.0 mM NAD (or NADP) and 1.0 mM EDTA. The reaction was started by adding the substrate (SDA or other aldehyde) to the prewarmed (5 min at 37°C) assay mixture containing enzyme preparation. Pyrazole (0.1 mM) was added particularly for liver enzyme, to inhibit alcohol dehydrogenase. The apparent Km and maximum velocity (Vmax) values were calculated using a Lineweaver-Burk plot based on the estimation of the slope by regression analysis. Enzyme activity was expressed as mU (nmoles/min) per mg of protein. Protein contents were determined by the Bradford method, using bovine serum albumin as the standard.

[3] = tested on: NADP-linked cytosolic ALDH; assay: NADP-linked cytosolic ALDH assay, L1210/CPA cells; format: biochemical, Murine; conditions: SDA as substrate; read-out: 50% inhibition at
Protocol: as §1
as §2, with “standard. […]” for “standard.”

[4] = tested on: tumor cells and hemopoietic progenitor cells; assay: Cytotoxicity of ALDH inhibitors ex vivo; format: cell-based; conditions: at concentrations much lower than needed for complete inhibition of ALDH
Excerpt: Both disulfiram and acrolein were very toxic to tumor cells and hemopoietic progenitor cells ex vivo at concentrations much lower than that needed for complete inhibition of ALDH. […] Therefore, in subsequent experiments, DEAB was chosen to study the survival of leukemic cells and myeloid progenitor cells after treatment with SDA.

Ornithine decarboxylase = Ornithine decarboxylase (Mus musculus, UniProt P00860); assay: Ornithine decarboxylase inhibition; format: biochemical; conditions: Figure 10
Sequence of Ornithine decarboxylase (P00860 whole entry): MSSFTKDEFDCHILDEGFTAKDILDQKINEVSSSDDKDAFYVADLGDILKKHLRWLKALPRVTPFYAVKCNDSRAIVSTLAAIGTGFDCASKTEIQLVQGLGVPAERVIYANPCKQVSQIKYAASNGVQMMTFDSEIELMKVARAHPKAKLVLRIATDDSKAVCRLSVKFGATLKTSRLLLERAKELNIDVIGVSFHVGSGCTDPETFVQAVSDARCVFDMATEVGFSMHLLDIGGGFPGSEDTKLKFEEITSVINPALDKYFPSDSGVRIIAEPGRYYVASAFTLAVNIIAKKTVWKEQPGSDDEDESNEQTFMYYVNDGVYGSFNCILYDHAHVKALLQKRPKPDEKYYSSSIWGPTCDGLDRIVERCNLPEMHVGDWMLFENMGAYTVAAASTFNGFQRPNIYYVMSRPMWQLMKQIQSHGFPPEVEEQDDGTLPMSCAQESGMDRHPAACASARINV
Excerpt: The figure illustrates the comparative profile of the inhibition of key regulatory enzymes of polyamine synthesis by SDA, its analogue, butyl dialdehyde (BDA), difluoromethyl orinithine (DFMO) and methyl glyoxal bis (guanylhydrazone) (MGBG).

[5] = tested on: Cytosolic ALDH in mouse liver; assay: NAD-linked cytosolic ALDH assay, mouse liver; format: biochemical; conditions: as substrate, mouse liver cytosol
Protocol: as §1, §2

SMILES: CC(=O)CCNCCCCNCCC(C)=O [ANALOGUE # 3]
alkylation [1]: nonspecific alkylating agents

SMILES: C=CC=O [Acrolein]
IC50 (cytosolic ALDH; SDA (1.0 mM) as substrate, pretreated with inhibitor 5 min at 37°C, read-out: Inhibition (IC₅₀)): 2.5 ± 0.63 µM
IC50 [3]: 50 to 100 µM
toxicity to tumor cells and hemopoietic progenitor cells ex vivo [4]: very toxic

SMILES: CCN(CC)C(=S)SSC(=S)N(CC)CC [Disulfiram]
toxicity to tumor cells and hemopoietic progenitor cells ex vivo [4]: very toxic

SMILES: CC(C=NNC(=N)N)=NNC(=N)N [MGBG, methyl glyoxal bis (guanylhydrazone), reference compound]
inhibition of AdoMet DC (in words) [2]: inhibited AdoMetDC; also recorded: selectively reduced AdoMet IC activity

SMILES: c1cn[nH]c1 [Pyrazole]
effect on L1210/CPA cytosolic enzyme (cytosolic ALDH; SDA as the substrate, data not shown): had no effect

Continued, in another order:

alkylation [1]: nonspecific alkylating agents
SMILES: Nc1ncnc2c1nc(Sc1cc3c(cc1Br)OCO3)n2CCc1ccccc1Cl [ANALOGUE # 4]

IC50 ([2]; Figure 9, inhibition curves superimposable, read-out: IC₅₀ values): 120 to 130 µM
SMILES: O=CCCCNCCCCNCCCC=O [ANALOGUE # 7, butyl dialdehyde]
potency in proliferation assays compared with SDA (splenic T cell; Fig. 8): less potent than SDA
fold less potent than SDA (splenic T cell; Figure 8): 30 fold
inhibition of AdoMet DC (in words) [2]: selectively inhibited adenosylmethionine decarboxylase

inhibition of ODC (in words) (Ornithine decarboxylase): inhibited ODC with high potency
inhibition of AdoMet DC (in words) [2]: compensatory increase in AdoMetDC
SMILES: NCCCC(N)(C(=O)O)C(F)F (stereo not drawn) [DFMO, difluoromethyl orinithine, reference compound]

Km ([5]; NAD, ± SEM, 3-4 experiments): 14 ± 2.8 µM
SMILES: CCC=O [Propionaldehyde]
Km (cytosolic ALDH; as substrate, L1210/CPA cytosol, NAD, ± SEM, 3-4 experiments): 26.5 ± 4.9 µM
Specific (activity of ALDH) (cytosolic ALDH; as substrate, L1210/CPA cytosol, propionaldehyde 1.0 mM): 10.5 ± 3.2 mU/mg Protein
Specific (activity of ALDH) ([5]; propionaldehyde 1.0 mM): 22.5 ± 3.9 mU/mg Protein

Source: patent EP0366451A2, “The use of oxidized polyamines, especially NN'-Bis-(3-propionaldehyde)-1-4-diaminobutane (sperminedialdehyde) as immunosuppressive agents” (ORTHO PHARMACEUTICAL CORPORATION, priority 1988, dated 1990)
